Among the data in article PMC4319922, “WIP1 Phosphatase as a Potential Therapeutic Target in Neuroblastoma” (PLoS ONE, 2015) are IC50 values, retold here.

This assay has as its target T1, WIP1 (wild-type p53-induced phosphatase 1, PPM1D) (Homo sapiens, UniProt O15297).
T1 construct: WIP1-ΔExon6-His-pET-23a+ construct
T1 sequence (O15297 1-420 limits assumed): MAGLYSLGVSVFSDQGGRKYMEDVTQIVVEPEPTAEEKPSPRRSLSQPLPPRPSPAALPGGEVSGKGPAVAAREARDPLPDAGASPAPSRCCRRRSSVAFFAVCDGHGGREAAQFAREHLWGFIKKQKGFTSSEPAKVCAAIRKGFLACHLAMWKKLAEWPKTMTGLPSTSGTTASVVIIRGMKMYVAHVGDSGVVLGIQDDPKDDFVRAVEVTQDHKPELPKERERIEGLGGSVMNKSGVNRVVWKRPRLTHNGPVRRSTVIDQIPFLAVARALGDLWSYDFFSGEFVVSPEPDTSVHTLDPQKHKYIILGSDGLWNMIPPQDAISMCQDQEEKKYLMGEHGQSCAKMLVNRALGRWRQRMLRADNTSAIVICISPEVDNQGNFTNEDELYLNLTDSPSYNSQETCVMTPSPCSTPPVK
Nature of the assay: in vitro phosphatase assay, free phosphate release (BIOMOL Green), H2AX pS139 phosphopeptide substrate (p53 pS15 peptide:[…]). It is filed as biochemical.

`Cc1ncc(Cl)cc1NCc1ccc(C(=O)N[C@@H](CC2CCCC2)C(=O)NC2CC2)s1` [GSK2830371] displayed a 50% inhibitory concentration (IC50) of 123 nM.
